Assay results reported in patent publication US8637702B2, “Derivatives of N-hydroxybenzamide for treating HIV infections” (Italfarmaco S.p.A., priority 2009, dated 2014).
pIC50: −log10 of the molar value.

How the values were obtained:
[1] = molecular target: HDAC4 (Homo sapiens, UniProt P56524); assay: Inhibition of histone deacetylase isoforms, HDAC4
Experimental: (§1) Recombinant human enzymes were acquired from BPS Biosciences (CA, USA). Isoforms of Class I HDAC1, 2, 3; HDAC6, 10 of Class IIb and Class IV HDAC11 were tested using the Fluor-de-Lys fluorogenic synthetic substrate (Enzo Life Sciences, Plymouth Meeting, Pa.). […] Each inhibitor was dissolved in DMSO and then further diluted in an assay buffer. […] The assays were performed by pre-incubating each enzyme with the inhibitors for 15 minutes at 37° C. The reaction was started by adding the substrate at 37° C. and allowed to proceed for 60 minutes. The fluorescent signal was generated by adding 50 μL of a twice concentrated developer solution 2 (Enzo) containing trichostatin A 4 μM.

[2] = molecular target: T1, HDAC6 (Homo sapiens, UniProt Q9UBN7); assay: Inhibition of histone deacetylase isoforms, HDAC6
T1 sequence (Q9UBN7 1-1215): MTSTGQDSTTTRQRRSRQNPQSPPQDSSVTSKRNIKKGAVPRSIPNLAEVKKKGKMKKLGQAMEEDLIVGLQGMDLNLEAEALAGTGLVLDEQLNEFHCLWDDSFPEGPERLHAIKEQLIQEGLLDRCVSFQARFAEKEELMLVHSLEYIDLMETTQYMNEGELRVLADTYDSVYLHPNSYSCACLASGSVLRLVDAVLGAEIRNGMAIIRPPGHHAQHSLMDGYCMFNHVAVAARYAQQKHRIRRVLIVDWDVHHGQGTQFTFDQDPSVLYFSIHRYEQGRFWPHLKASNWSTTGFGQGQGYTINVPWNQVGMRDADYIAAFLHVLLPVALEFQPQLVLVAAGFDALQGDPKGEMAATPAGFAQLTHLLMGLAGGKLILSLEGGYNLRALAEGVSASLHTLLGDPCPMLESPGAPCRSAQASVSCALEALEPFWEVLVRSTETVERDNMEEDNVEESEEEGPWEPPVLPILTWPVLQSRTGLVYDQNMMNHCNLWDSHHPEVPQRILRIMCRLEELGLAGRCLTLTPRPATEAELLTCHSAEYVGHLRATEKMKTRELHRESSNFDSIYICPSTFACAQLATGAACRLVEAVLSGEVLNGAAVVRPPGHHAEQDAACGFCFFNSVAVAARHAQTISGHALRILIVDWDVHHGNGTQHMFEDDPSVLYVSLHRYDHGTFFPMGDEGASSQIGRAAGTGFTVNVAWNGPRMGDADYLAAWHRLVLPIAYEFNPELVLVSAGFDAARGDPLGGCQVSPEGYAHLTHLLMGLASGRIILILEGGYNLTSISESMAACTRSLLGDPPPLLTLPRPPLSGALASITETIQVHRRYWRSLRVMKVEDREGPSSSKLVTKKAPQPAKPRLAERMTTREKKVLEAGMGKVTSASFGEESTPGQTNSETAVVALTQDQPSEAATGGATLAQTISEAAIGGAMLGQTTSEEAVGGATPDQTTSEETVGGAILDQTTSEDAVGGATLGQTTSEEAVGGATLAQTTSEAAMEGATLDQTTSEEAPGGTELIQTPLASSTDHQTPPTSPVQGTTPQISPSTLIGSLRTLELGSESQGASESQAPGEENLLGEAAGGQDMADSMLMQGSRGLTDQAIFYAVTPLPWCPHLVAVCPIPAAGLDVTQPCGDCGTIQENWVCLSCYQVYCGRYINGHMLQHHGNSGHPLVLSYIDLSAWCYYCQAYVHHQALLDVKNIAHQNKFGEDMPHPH
Experimental: (§2) Recombinant human enzymes were acquired from BPS Biosciences (CA, USA). Isoforms of Class I HDAC1, 2, 3; HDAC6, 10 of Class IIb and Class IV HDAC11 were tested using the Fluor-de-Lys fluorogenic synthetic substrate (Enzo Life Sciences, Plymouth Meeting, Pa.). […] The recombinant human HDAC8 assay was performed using HDAC8 Fluorimetric Drug Discovery Kit (Enzo) according to the manufacturer instructions. Each inhibitor was dissolved in DMSO and then further diluted in an assay buffer. […] The assays were performed by pre-incubating each enzyme with the inhibitors for 15 minutes at 37° C. The reaction was started by adding the substrate at 37° C. and allowed to proceed for 60 minutes. The fluorescent signal was generated by adding 50 μL of a twice concentrated developer solution 2 (Enzo) containing trichostatin A 4 μM.

[3] = molecular target: T2, HDAC7 (Homo sapiens, UniProt Q8WUI4); assay: Inhibition of histone deacetylase isoforms, HDAC7
T2 sequence (Q8WUI4 1-952): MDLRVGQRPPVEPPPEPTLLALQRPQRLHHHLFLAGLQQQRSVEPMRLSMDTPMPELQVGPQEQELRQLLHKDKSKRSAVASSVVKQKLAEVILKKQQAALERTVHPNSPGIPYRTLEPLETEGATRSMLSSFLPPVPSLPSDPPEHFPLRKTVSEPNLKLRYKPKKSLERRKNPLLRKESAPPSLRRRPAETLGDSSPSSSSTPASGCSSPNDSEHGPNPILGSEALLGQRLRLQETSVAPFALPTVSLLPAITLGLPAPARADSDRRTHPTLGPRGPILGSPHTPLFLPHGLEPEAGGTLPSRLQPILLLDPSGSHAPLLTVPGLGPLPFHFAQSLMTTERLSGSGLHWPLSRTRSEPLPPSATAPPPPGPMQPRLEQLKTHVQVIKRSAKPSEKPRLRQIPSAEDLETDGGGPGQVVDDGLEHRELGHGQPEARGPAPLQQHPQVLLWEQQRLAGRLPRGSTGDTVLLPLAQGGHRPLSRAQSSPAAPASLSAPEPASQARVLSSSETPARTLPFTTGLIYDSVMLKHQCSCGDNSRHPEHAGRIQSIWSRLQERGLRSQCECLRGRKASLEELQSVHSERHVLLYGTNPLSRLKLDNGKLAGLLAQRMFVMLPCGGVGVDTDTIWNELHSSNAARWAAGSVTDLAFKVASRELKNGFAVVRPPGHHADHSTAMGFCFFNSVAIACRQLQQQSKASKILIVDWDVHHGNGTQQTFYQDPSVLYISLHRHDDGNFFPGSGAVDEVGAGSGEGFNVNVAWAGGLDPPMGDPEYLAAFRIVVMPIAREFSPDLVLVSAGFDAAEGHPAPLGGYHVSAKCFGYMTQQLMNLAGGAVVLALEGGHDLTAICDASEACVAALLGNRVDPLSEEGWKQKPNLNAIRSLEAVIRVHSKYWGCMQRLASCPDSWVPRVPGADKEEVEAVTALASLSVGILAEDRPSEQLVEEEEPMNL
Experimental: as §2

[4] = molecular target: HDAC9 (Homo sapiens, UniProt Q9UKV0); assay: Inhibition of histone deacetylase isoforms, HDAC9
HDAC9, sequence (Q9UKV0 whole entry, canonical isoform): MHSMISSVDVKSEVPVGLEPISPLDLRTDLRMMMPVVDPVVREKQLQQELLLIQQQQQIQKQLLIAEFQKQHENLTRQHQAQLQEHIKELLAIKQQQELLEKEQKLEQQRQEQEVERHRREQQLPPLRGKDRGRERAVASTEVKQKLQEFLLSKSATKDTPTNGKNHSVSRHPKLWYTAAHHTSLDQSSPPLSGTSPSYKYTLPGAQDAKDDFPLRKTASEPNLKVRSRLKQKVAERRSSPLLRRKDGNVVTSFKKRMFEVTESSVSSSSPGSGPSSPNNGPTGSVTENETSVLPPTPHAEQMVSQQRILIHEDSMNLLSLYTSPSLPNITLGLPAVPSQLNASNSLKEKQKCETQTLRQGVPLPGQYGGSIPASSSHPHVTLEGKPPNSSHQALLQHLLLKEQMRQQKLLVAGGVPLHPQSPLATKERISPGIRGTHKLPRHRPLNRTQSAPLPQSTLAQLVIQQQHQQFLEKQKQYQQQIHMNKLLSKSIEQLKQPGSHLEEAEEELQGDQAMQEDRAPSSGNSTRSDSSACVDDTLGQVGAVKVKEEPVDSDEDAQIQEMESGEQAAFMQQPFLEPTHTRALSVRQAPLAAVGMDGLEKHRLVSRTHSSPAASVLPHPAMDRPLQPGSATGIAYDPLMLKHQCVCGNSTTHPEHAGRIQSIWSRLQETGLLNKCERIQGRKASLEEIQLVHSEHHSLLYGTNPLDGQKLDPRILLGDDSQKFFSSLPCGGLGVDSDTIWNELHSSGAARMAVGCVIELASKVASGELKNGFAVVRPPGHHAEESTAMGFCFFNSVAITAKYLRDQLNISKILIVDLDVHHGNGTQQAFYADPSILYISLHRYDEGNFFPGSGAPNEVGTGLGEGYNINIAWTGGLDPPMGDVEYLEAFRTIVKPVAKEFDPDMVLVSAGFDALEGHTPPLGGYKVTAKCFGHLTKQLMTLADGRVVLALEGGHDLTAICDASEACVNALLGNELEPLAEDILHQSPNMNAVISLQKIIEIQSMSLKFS
Experimental: as §1

HDAC4, sequence (P56524 whole entry, canonical isoform): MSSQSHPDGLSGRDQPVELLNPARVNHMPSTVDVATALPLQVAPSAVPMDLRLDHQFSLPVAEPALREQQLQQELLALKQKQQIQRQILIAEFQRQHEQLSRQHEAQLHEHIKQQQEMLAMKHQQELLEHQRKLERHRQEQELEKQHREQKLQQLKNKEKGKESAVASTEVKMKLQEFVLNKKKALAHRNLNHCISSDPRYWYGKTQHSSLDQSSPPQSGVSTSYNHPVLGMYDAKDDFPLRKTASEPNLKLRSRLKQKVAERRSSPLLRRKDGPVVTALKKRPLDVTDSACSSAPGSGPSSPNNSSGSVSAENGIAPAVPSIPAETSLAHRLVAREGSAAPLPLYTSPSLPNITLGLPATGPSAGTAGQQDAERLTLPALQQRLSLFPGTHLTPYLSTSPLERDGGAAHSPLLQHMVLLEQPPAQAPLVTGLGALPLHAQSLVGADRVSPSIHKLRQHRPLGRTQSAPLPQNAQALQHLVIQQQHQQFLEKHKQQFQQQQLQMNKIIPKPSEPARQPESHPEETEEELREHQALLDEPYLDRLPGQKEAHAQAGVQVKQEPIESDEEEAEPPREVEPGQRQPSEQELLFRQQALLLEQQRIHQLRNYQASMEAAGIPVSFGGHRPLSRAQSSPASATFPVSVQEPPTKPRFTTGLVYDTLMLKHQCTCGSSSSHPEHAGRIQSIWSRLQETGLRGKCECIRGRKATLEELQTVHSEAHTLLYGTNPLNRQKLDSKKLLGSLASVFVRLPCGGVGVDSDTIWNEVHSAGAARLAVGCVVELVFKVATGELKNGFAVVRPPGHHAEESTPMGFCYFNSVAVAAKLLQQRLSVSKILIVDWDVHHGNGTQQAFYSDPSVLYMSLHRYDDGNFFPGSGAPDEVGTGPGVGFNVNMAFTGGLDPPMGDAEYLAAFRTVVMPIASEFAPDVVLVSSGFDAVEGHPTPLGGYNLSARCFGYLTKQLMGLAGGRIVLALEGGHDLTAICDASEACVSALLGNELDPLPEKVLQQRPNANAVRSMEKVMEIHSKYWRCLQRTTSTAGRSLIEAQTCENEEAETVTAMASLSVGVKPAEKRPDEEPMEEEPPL

Compound | pIC50 [1] | pIC50 [2] | pIC50 [3] | pIC50 [4]
O=C(NO)c1ccc(NC(=O)[C@H](Cc2ccc3ccccc3c2)NC(=O)c2ccccc2)cc1 [Compound g, 4-(2(S)-benzoylamino-3-naphtalen-2-yl-propionylamino)-N-hydroxy-benzamide] | 5.51 | 5.44 | 5.69 | 5.38
O=C(NO)c1ccc(NC(=O)[C@H](Cc2ccc3ccccc3c2)NC(=O)c2ccc3c(c2)OCO3)cc1 [Compound t, benzo[1,3]dioxole-5-carboxylic acid [1(S)-(4-hydroxycarbamoyl-phenylcarbamoyl)-2-naphtalen-2-yl-ethy]-amide] | < 5.00 | 6.21 | 5.06 | < 5.00
